# Tests used:
# Conditions in all cases: 72 h
# Caco-2 [1] = test: relative viability EC50 (midpoint between 100% and the lowest measured viability); higher = less toxic
# Vero E6 [2] = test: as above
# HepG2 [3] = test: as above
# U2OS [4] = test: as above
# Calu-3 [5] = test: as above
# Caco-2 [6] = test: cell viability relative to DMSO; higher = less toxic
# Vero E6 [7] = test: as above
# HepG2 [8] = test: as above
# U2OS [9] = test: as above
# Calu-3 [10] = test: as above
# Caco-2 [11] = test: drug sensitivity score (DSS) for viability; higher = more toxic; extreme values may be limits of the assay
# Vero E6 [12] = test: as above
# HepG2 [13] = test: as above
# U2OS [14] = test: as above
# Calu-3 [15] = test: as above
SMILES,relative viability EC50 (Caco-2 [1]) [µM],relative viability EC50 (Vero E6 [2]) [µM],relative viability EC50 (HepG2 [3]) [µM],relative viability EC50 (U2OS [4]) [µM],relative viability EC50 (Calu-3 [5]) [µM],cell viability (Caco-2 [6]; 1 nM) [%],cell viability (Caco-2 [6]; 10 nM) [%],cell viability (Caco-2 [6]; 100 nM) [%],cell viability (Caco-2 [6]; 1000 nM) [%],cell viability (Caco-2 [6]; 10000 nM) [%],cell viability (Vero E6 [7]; 1 nM) [%],cell viability (Vero E6 [7]; 10 nM) [%],cell viability (Vero E6 [7]; 100 nM) [%],cell viability (Vero E6 [7]; 1000 nM) [%],cell viability (Vero E6 [7]; 10000 nM) [%],cell viability (HepG2 [8]; 1 nM) [%],cell viability (HepG2 [8]; 10 nM) [%],cell viability (HepG2 [8]; 100 nM) [%],cell viability (HepG2 [8]; 1000 nM) [%],cell viability (HepG2 [8]; 10000 nM) [%],cell viability (U2OS [9]; 1 nM) [%],cell viability (U2OS [9]; 10 nM) [%],cell viability (U2OS [9]; 100 nM) [%],cell viability (U2OS [9]; 1000 nM) [%],cell viability (U2OS [9]; 10000 nM) [%],cell viability (Calu-3 [10]; 1 nM) [%],cell viability (Calu-3 [10]; 10 nM) [%],cell viability (Calu-3 [10]; 100 nM) [%],cell viability (Calu-3 [10]; 1000 nM) [%],cell viability (Calu-3 [10]; 10000 nM) [%],drug sensitivity score (Caco-2 [11]),drug sensitivity score (Vero E6 [12]),drug sensitivity score (HepG2 [13]),drug sensitivity score (U2OS [14]),drug sensitivity score (Calu-3 [15])
COc1ccc(C(Cl)=C(c2ccc(OC)cc2)c2ccc(OC)cc2)cc1 [chlorotrianisene],> 10,> 10,> 10,> 10,> 10,98.5,97.5,98,104,102,93.8,103,91.8,99.5,106,98.5,94.9,93.6,111,101,95.5,97.8,101,102,93.6,98.5,95.9,104,83.6,99.9,0,0,0,0,0
c1ccc(C2CC2)c(OCC2=NCCN2)c1 [cirazoline],> 10,> 10,> 10,> 10,> 10,97.1,95,102,90.4,113,93.7,97.2,95.8,106,107,95.5,97.6,94.8,107,110,94.2,95.7,99.5,97.6,98.1,108,97.2,99.3,107,98.6,0,0,0,0,0
O=P(O)(O)C(Cl)(Cl)P(=O)(O)O [clodronic-acid],> 10,> 10,> 10,> 10,> 10,98,103,96.3,100,100,108,103,97.7,101,99.1,99.2,96.6,98.6,101,102,99.4,102,105,101,103,94.3,97.1,96.5,96.1,109,0,0,0,0,0
Cc1cc(C(C#N)c2ccc(Cl)cc2)c(Cl)cc1NC(=O)c1cc(I)cc(I)c1O (stereo not given) [closantel],> 10,> 10,> 10,> 10,> 10,97.4,99.6,99.8,97.5,100,101,98.2,96.2,93.7,101,95,95.5,102,86.4,107,93.3,96.7,97.4,98.8,104,90.9,95.5,92.3,92.4,95.3,0,0,0,0,0
CC1CC(OC(=O)C(O)c2ccccc2)CC(C)(C)C1 (stereo not given) [cyclandelate],> 10,> 10,> 10,> 10,> 10,91.5,105,94.3,105,108,97.8,99.1,100,96.7,94.9,103,91.9,100,96.3,98.3,97.2,103,97.5,102,97.5,95.9,90.2,102,95.5,99,0,0,0,0,0
Nc1ccc(S(=O)(=O)c2ccc(N)cc2)cc1 [dapsone],> 10,> 10,> 10,> 10,> 10,106,95.6,104,100,91.7,98.5,106,105,106,100,112,107,93.2,106,96.6,99.3,97.1,95.8,96.2,100,104,98.6,90.4,106,101,0,0,0,0,0
Cc1oc(-c2ccccc2)nc1CCC(=O)c1ccc(CC2SC(=O)NC2=O)cc1 (stereo not given) [darglitazone],> 10,> 10,> 10,> 10,> 10,102,95.5,96.2,91.9,91.2,96,90.8,83.3,76,83.3,96.9,95,95.8,96.3,95.4,109,98.7,102,102,103,97.4,110,114,111,119,0,4.8,0,0,0
